Tests used:
[1] = test system: Cryptococcus yeast (CHY3833 and CHY3836); test: Yeast replication secondary screen (OD600); assay type: cell-based, Cryptococcus neoformans serotype D (deneoformans); settings: 10 μM, 12 h at 30°C
Description: (ii) Yeast replication. CHY3833 and CHY3836 were each grown in YPD liquid overnight at 30°C to saturation and then resuspended in 0.5× YPD at an OD600 of 0.005. Strains were aliquoted into 384-well plates with inhibitors and grown for 12 h at 30°C at […] before OD600 readings were taken. Compounds that caused a >10% decrease in growth were considered yeast growth inhibitors.

[2] = test system: normal human dermal fibroblasts (NHDF) cells; test: Fibroblast cytotoxicity (CellTiter-Glo); assay type: cell-based; settings: 10 µM
In short: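 Normal human dermal fibroblasts, 1 × 10^3 per well, exposed to compounds at 10 μM for 72 h at 37°C. Viability read as ATP-dependent CellTiter-Glo luminescence. Dose-response runs titrated compounds from 80 μM to 0.5 μM in duplicate.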

Structure (SMILES)	Yeast Inhibition: % Inhibition [1] [%]	Cytotoxicity: Relative Cell Viability (% of Negative Control) [2]
Cc1cc(-c2nnc(NC(=O)c3ccc(C(=O)c4ccccc4)cc3)o2)nn1C [compound 25283140]	-15.6	79.9 % of Negative Control
CCCC(CCC)C(=O)N1CCN(c2ccc(-c3cccnc3)nn2)CC1 [compound 25283686]	2.8	103.7 % of Negative Control
Cc1ccn(-c2ccc(N3CCN(C(=O)c4ccccc4Br)CC3)nn2)n1 [compound 25667819]	-7.4	101.9 % of Negative Control
Cc1cc(NC(=O)c2cccc(Oc3ccccc3)c2)on1 [compound 25813521]	19.4	105.8 % of Negative Control
CN1C(=O)c2cccc(NC(=O)c3ccnn3C)c2C1=O [compound 25835862]	41.6	104.6 % of Negative Control
COc1ccc(-c2noc(CSc3nc4ccsc4c(=O)n3C)n2)cc1 [compound 27373469]	33.0	109.3 % of Negative Control
Cc1ccccc1CSc1n[nH]c(=O)c2cc(-c3ccco3)nn12 [compound 27373907]	49.7	97.6 % of Negative Control
COc1ccc(-c2noc(-c3cc(-c4cc(C)ccc4C)n[nH]3)n2)cc1OC [compound 27375613]	9.4	94.0 % of Negative Control
Cc1nc(C)c(C(=O)NCCn2ncc3c(N4CCN(Cc5ccccc5)CC4)ncnc32)s1 [compound 27460748]	22.5	112.9 % of Negative Control
O=C(NC1CCCC1)c1csc(Nc2ccccc2)n1 [compound 30860168]	82.0	93.7 % of Negative Control
O=C(NCCOc1ccc(F)cc1)c1ccc(C(F)(F)F)cc1 [compound 30865811]	68.2	100.1 % of Negative Control
Cc1nc(Oc2ccccc2)cc(N2CCN(C(=O)/C=C/c3ccccc3)CC2)n1 [compound 42065409]	15.5	90.0 % of Negative Control
Cc1nc(C)c(C(=O)NCCn2ncc3c(N4CCN(c5ccc(F)cc5)CC4)ncnc32)s1 [compound 42099839]	43.6	79.3 % of Negative Control
O=S(=O)(NCCN1CCN(c2ccc(Cl)cc2)CC1)c1ccc(Cl)s1 [compound 42268033]	19.1	102.4 % of Negative Control
Nc1nc(Cl)cc(Nc2cccc(C(F)(F)F)c2)n1 [compound 42589452]	100.9	51.8 % of Negative Control
OC(COc1ccc(Br)cc1Br)CN1CCc2ccccc2C1 (stereo not drawn) [compound 43842355]	76.5	28.9 % of Negative Control
O=C(C1CCC1)N(Cc1cccnc1)c1nc2ccc(Cl)cc2s1 [compound 43967671]	78.9	97.1 % of Negative Control
Cc1cc(-c2nnc(NC(=O)C3Oc4ccccc4OC3C)o2)n(C)n1 (stereo not drawn) [compound 44070699]	-15.7	97.2 % of Negative Control
CCCc1cc(=O)[nH]c(-n2nc(C)cc2C)n1 [compound 44116743]	96.0	64.3 % of Negative Control
Cc1ccc(COC(=O)c2ccc(C3Nc4ccccc4S(=O)(=O)N3)cc2)cc1 (stereo not drawn) [compound 44117349]	15.4	106.4 % of Negative Control
O=C(COC(=O)c1ccc(C2Nc3ccccc3S(=O)(=O)N2)cc1)Nc1cc(F)ccc1F (stereo not drawn) [compound 44117394]	9.7	105.4 % of Negative Control

Structure (SMILES)	Yeast Inhibition: % Inhibition [1] [%]	Cytotoxicity: Relative Cell Viability (% of Negative Control) [2]
Cl.Cl.OC(COc1cccc2ccccc12)CN1CCN(c2ccc(F)cc2)CC1 (stereo not drawn) [compound 45283772]	44.0	96.8 % of Negative Control
COc1ccc(CCNC(=O)c2cnn3c(-c4ccc(C)c(C)c4)ccnc23)cc1OC [compound 46074589]	-4.7	105.7 % of Negative Control
Cc1ccc(Nc2ccc(N3CCN(C(=O)Cc4ccc(F)cc4)CC3)nn2)cc1 [compound 49671361]	-10.5	102.4 % of Negative Control
Cc1noc(C)c1C(=O)N1CCN(c2ccc(-c3noc(C(C)C)n3)cn2)CC1 [compound 49701731]	1.4	102.2 % of Negative Control
Cc1cccc(CC(=O)Nc2cc(C)ns2)c1 [compound 49722107]	32.6	98.5 % of Negative Control
COc1ccc2nc(N3CCCC(C(=O)O)C3)sc2c1 (stereo not drawn) [compound 53212169]	-17.8	105.4 % of Negative Control
CC(C)c1nc(-c2ccc(N3CCN(C(=O)Cc4cn(C)c5ccccc45)CC3)nc2)no1 [compound 71780502]	-2.9	91.8 % of Negative Control
Cc1cc(C(=O)N(CCc2cccs2)C2CC2)c(C)o1 [compound 71781394]	95.6	103.1 % of Negative Control
CN(C)CCN(C(=O)c1c[nH]c2ccccc12)c1nc2ccc(OC(F)(F)F)cc2s1.Cl [compound 71782913]	99.5	66.6 % of Negative Control
O=C(c1cc(-c2ccco2)on1)N1CCC(c2cccs2)CC1 [compound 71786870]	39.7	90.1 % of Negative Control
O=C(CSCc1ccccc1)N1CCC(c2cccs2)CC1 [compound 71786876]	12.2	97.1 % of Negative Control
O=C(CCSc1ccccc1)N1CCC(c2cccs2)CC1 [compound 71786877]	10.0	89.8 % of Negative Control
O=C(CSCc1ccccc1)N1CCC(c2ccsc2)CC1 [compound 71786985]	11.0	101.7 % of Negative Control
O=C(CSc1ccc(F)cc1)N1CCC(c2ccsc2)CC1 [compound 71786989]	16.0	102.2 % of Negative Control
O=C(Cc1cccc2ccccc12)N1CCC(c2ccsc2)CC1 [compound 71786990]	8.3	94.3 % of Negative Control
Cc1cc(C(=O)NCCC(O)c2cccc3ccccc23)c(C)o1 (stereo not drawn) [compound 71787916]	28.8	101.1 % of Negative Control
O=C(Nc1nc2c(s1)CN(C(=O)C1(c3cccs3)CCCC1)CC2)c1ccoc1 [compound 71788301]	8.3	91.4 % of Negative Control
COc1cc(NS(=O)(=O)c2cccc(C(F)(F)F)c2)ncn1 [compound 71795763]	-14.5	90.4 % of Negative Control
Cc1cccc2sc(OC3CN(C(=O)Cc4ccc(F)cc4)C3)nc12 [compound 71796286]	3.1	99.2 % of Negative Control
Cc1cc(C(=O)NCCc2nc(C3CC3)cc(C(F)(F)F)n2)c(C)o1 [compound 71797038]	47.0	94.6 % of Negative Control
O=C(NCCc1nc2c(c(C(F)(F)F)n1)CCCC2)c1ccc(F)cc1Cl [compound 71797126]	20.3	106.4 % of Negative Control

Reference: PMC8406298, “Discovery of Fungus-Specific Targets and Inhibitors Using Chemical Phenotyping of Pathogenic Spore Germination” (mBio, 2021)
